Here are results for two molecules from BindingDB's records for patent US20250215013 (Impact Therapeutics (Shanghai), 2025).

The term IC50 denotes the point on the concentration scale where inhibition reaches its midpoint.

In assay [1] the target is Poly [ADP-ribose] polymerase 1 (Homo sapiens, UniProt P09874). Put plainly: PARP1 and PARP2 Chemiluminescent Assay.
Method: The solutions were added to a 96-well plate coated with histone mixture, incubated at room temperature for 1 h, then 50 μL 0.3 ng/mL Streptavidin-HRP was added to each well. The plates were incubated for 30 minutes at room temperature. Finally, the plates were treated with streptavidin-HRP followed by addition of the ELISA ECL substrate to produce chemiluminescence that can be measured using a chemiluminescence reader. Inhibition of the tested compound to PARP1/2 enzyme activity was calculated according to the following formula.Inhibition ⁢ ( % ) = Readings ⁢ of ⁢ positive ⁢ control - X Readings ⁢ of ⁢ positive ⁢ control - Readings ⁢ of ⁢ negative ⁢ controlIC50 value is obtained by fitting the s-shaped dose response curve equation by using XL Fit software. The curve equation is Y=100/(1+10^(logC−logIC50)), C is the compound concentration.
The target of the next assay is PARP2 (Homo sapiens, UniProt Q9UGN5). The assay can be described thus: PARP1 and PARP2 Chemiluminescent Assay.
Sequence of PARP2 (Q9UGN5 whole entry): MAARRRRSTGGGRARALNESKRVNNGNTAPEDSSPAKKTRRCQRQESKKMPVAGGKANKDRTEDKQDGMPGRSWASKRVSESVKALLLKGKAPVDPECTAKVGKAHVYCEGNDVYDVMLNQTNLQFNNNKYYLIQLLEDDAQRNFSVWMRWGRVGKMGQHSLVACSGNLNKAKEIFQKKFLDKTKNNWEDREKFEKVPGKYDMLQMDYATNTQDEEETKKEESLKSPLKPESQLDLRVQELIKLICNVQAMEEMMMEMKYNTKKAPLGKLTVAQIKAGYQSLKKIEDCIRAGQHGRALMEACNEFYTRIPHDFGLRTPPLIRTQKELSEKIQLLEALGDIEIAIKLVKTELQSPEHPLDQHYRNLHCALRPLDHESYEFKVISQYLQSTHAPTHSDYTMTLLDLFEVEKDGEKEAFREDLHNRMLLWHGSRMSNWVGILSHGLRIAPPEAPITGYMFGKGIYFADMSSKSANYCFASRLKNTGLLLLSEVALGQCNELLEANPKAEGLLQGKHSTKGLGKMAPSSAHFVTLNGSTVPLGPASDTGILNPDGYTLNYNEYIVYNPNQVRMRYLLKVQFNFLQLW

Sequence of Poly [ADP-ribose] polymerase 1 (P09874 whole entry): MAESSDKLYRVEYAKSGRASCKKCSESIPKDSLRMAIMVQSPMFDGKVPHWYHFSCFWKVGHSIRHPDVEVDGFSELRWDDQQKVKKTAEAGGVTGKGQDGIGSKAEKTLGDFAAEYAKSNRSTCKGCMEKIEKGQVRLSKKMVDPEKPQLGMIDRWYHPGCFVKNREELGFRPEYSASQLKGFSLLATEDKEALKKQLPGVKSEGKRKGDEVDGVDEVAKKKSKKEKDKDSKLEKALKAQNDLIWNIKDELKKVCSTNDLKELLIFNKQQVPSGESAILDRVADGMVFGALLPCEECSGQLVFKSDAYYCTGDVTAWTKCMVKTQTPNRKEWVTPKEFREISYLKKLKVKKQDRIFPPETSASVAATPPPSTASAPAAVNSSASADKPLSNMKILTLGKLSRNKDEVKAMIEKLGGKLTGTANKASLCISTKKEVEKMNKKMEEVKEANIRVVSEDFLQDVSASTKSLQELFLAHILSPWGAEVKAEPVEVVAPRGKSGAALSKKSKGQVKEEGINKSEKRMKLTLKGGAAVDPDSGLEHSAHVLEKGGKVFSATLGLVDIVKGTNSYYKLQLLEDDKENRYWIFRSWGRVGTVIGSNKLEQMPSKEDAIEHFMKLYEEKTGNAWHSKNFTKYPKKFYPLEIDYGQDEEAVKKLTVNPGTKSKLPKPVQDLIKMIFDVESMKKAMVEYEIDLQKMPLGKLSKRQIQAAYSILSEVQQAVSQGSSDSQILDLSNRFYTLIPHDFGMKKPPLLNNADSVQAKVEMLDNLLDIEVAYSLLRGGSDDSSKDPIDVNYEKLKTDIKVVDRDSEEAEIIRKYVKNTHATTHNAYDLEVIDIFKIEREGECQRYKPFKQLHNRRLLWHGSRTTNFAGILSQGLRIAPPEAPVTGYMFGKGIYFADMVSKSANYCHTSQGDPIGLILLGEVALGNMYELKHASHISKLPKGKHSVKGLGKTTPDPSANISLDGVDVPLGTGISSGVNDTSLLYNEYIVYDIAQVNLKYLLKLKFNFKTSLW

For `CNC(=O)c1ccc(N2CCN(Cc3ccc4c([nH]c(=O)n5ccnc45)c3F)CC2)c(C)n1` [US20250215013, Example 50], the IC50 in assay [1] was 2.13 nM; on PARP2, over 10000 nM.
The matching figures for `CNC(=O)c1ccc(N2CCN(Cc3ccc4c([nH]c(=O)c5c(F)cnn54)c3F)CC2)c(F)n1` [US20250215013, Example 188]: 0.4 nM and 1540 nM.
